Results published in patent US5861424A, “Composition and method for treating cancer” (priority 1995, dated 1999).
Where two headings read alike, the source gives them in different places.

Experiments:
[1] = test system: human colon carcinoma cell line CX-1; test: Colony formation assay, human colon carcinoma CX-1; type: cell-based; conditions: Table III; for IC50: Homo sapiens, Colon carcinoma cell, read-out: CX-1 (IC50); for Selectivity (ratio of IC50 for CV-1 and IC50 for CX-1): CV-1/CX-1
Description: (§2) Human colon carcinoma cell line CX-1 or normal monkey kidney epithelial cell line CV-1 was chosen as representatives of cancer cells and normal cells, respectively. […] CX-1 cells (2,000 cells/well) and CV-1 cells (1,000 cells/well) were plated in 24-well plastic culture plates. […] The control received culture media only. Cells were treated with compounds of General Formulas (1) to (6) at 37° C. for 24 hours. After rinsing with fresh culture medium three times, the cells were further incubated at 37° C. for 7 to 10 days. Cell colonies were fixed and stained with 2% crystal violet in 70% ethanol for 10 minutes and rinsed in water. […] The selectivity is defined as the ratio of IC50 for CV-1 and IC50 for CX-1.

[2] = test system: human ovarian carcinoma OVCAR-3; test: Survival of nude mice implanted with human ovarian carcinoma OVCAR-3; type: in vivo, human ovarian carcinoma in athymic Swiss nu/nu mice; conditions: 2 mg/kg, i.p. on day 1, 5, 9, 18, 48
Description: A human ovarian carcinoma cell line, OVCAR-3, was used. Ten million cells of this cell line were injected IP into ten athymic Swiss nu/nu mice. Ten mice into which these cancer cells had been injected were selected as a control group and received in equal volume of 5% dextrose as that of the treated group. The compounds of the General Formulas (1) to (6) which were tested and the results obtained are shown in Table IX below and in FIG. 7-9 of the accompanying drawings.

[3] = test system: normal monkey kidney epithelial cell line CV-1; test: Colony formation assay, normal monkey kidney epithelial cells CV-1; conditions: Primates, Epithelial cell;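 also: colonies visualized by crystal violet staining, incubation at 37 °C, IC50 relative to untreated wells given culture medium alone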
Description: as §2

[4] = test system: human bladder carcinoma EJ cell line; test: Colony formation assay, human bladder carcinoma EJ; type: cell-based; conditions: Table IV; for IC50: Homo sapiens, EJ, 24 h, read-out: EJ (IC50); for Selectivity (CV-1 IC50 / EJ IC50): CV-1/EJ
Description: (§1) The control received culture media only.

[5] = test system: human melanoma LOX cell line; test: Colony formation assay, human melanoma LOX; type: cell-based; conditions: Table V; for IC50: Homo sapiens, LOX, 24 h, read-out: LOX (IC50); for Selectivity (CV-1 IC50 / LOX IC50): CV-1/LOX
Description: as §1

[6] = test system: human breast carcinoma MCF-7 cell line; test: Colony formation assay, human breast carcinoma MCF-7; type: cell-based; conditions: Table VI; for IC50: Homo sapiens, MCF7, 24 h, 24 h treatment, read-out: MCF-7 (IC50); for Selectivity (CV-1 IC50 / MCF-7 IC50): CV-1/MCF-7
Description: as §1
The Selectivity values, MCF-7 values and CV-1 values for compounds of the General Formulas (1) to (6) used in the present invention are shown in Table VI below.

[7] = test system: human pancreatic carcinoma CRL 1420 cell line; test: Colony formation assay, human pancreatic carcinoma CRL 1420; type: cell-based; conditions: Table VII; for IC50: Homo sapiens, 24 h; for Selectivity (CV-1 IC50 / CRL-1420 IC50): CV-1/CRL-1420
Description: as §1
The Selectivity values, CRL 1420 values and CV-1 values for compounds of the General Formulas (1) to (6) used in the present invention are shown in Table VII below.

human melanoma LOX = test: Survival of nude mice implanted with human melanoma LOX; type: in vivo, human melanoma in male athymic Swiss nu/nu mouse; conditions: Mus musculus, ip, 24 h, 20 mg/kg, read-out: T/C (survival)
Description: LOX, a human melanoma cell line, grown subcutaneously in nude mice was excised, trypsinized to yield a single cell suspension using a metal grid with a […]. Red blood cells were lysed by incubation with 0.17 molar ammonium chloride at 4° C. for 20 minutes. Five million viable trypan blue negative cells made up in 0.1 ml of Dulbecco modified Eagles' medium (DME) were injected into the peritoneal cavity of a male athymic Swiss nu/nu mouse. The control group and each treatment group consisted of 5 to 10 mice. Treatment was commenced the following day by intraperitoneal injection.
Ten control mice received 0.25 ml of 2% dextrose on those days the treated groups were injected with the compounds of this invention. The compounds of the General Formulas. (1) to (6) used in this invention which were tested are listed in Table VIII below and the results obtained are shown in Table VIII and FIG. 1-6 of the accompanying drawings. T/C is the ratio, expressed as a percentage of the mean survival age of the treated group to the mean survival age of the untreated control group.

[8] = test system: human colon carcinoma CX-1; test: Anti-human colon carcinoma CX-1 activity in nude mice, tumor inhibition; type: in vivo, human colon carcinoma in Swiss nu/nu mice; conditions: Mus musculus, ip, 24 h
Description: Human colon carcinoma cell line CX-1 has been chosen by the National Cancer Institute as a mode for cancer drug screening (NCI Protocol 3C2H2). It was established in culture from the surgical explant of the primary colon adenocarcinoma of a person with no previous chemotherapy. The cultured CX-1 cells, upon subcutaneous injection, can grow readily in nude mice as a moderately- to well-differentiated human colon carcinoma. CEA is expressed as expected for differentiated colon carcinoma cells. Abundant keratin, consistent with epithelial origin, is present. Increased uptake and prolonged retention of delocalized lipophilic cations are observed.
Swiss nu/nu mice obtained from Taconic Farm were housed in a pathogen-free environment. Tumors subcutaneously passaged in nude mice were excised under sterile conditions and converted to a single cell suspension using a metal grid with a 0.4 mm mesh. Red blood cells were lysed by incubation with 0.17M ammonium chloride at 4° C. for 20 minutes. Cells were scored for viability with trypan blue. Viable CX-1 cells (2.5 million) made up in 0.1 ml of cell culture medium were injected subcutaneously into each nude mouse. The mice were randomly allocated into a control group (five mice) and a treatment group (five mice per group). The drug treatment was commenced the next day. Doses and schedules were developed empirically and were based mainly on information on LD50 and LD10 obtained from preliminary toxicity studies. The control group received an equivalent volume of hydroxylpropyl-β-cyclodextrin-5% glucose solution.
The pharmaceutical compositions tested comprised solutions in 5% glucose subjected to sonication at concentrations of 1 mg/ml. Those compounds which were not completely dissolved by this procedure were dissolved in hydroxypropyl-β-cyclodextrin using the following method. Hydroxypropyl-β-cyclodextrin (45 g) was mixed with 100 ml of sterilized, double distilled water and stirred for four hours. Each of the compounds to be tested (20 mg) was mixed with 10 ml of hydroxypropyl-β-cyclodextrin solution and sonicated for 60 minutes in the dark. This solution was then diluted in 5% glucose to yield a final compound concentration of 0.5 mg/ml, and further sonicated for 60 minutes in the dark to assure that the compound was completely dissolved.
When the growth of tumors in the control group reached the exponential phase and the size of the tumor was palpable (usually 20 to 30 days after tumor implantation), the experiments were terminated. Tumors in each mouse were excised and weighed using an analytical balance. Total tumor weight in each group from five mice was calculated. Per cent tumor inhibition between the treated group and the control group was then calculated for each group.

normal nude mice = test: Toxicity to normal nude mice
[9] = 24 h treatment, colony count after 7 to 10 days
[10] = read-out: CV-1 (IC50), Table III, 24 h treatment, colony count after 7 to 10 days
[11] = read-out: CV-1 (IC50), Table IV
[12] = read-out: CV-1 (IC50), Table VI
[13] = read-out: CV-1 (IC50), Table VII

SMILES	IC50 [1, 9] [µg/mL]	Selectivity (ratio of IC50 for CV-1 and IC50 for CX-1) [1]	IC50 [3, 10] [µg/mL]	IC50 ([4]; 24 h treatment) [µg/mL]	Selectivity (CV-1 IC50 / EJ IC50) [4]	IC50 ([5]; 24 h treatment) [µg/mL]	Selectivity (CV-1 IC50 / LOX IC50) [5]	IC50 [6] [µg/mL]	Selectivity (CV-1 IC50 / MCF-7 IC50) [6]	IC50 ([7]; 24 h treatment) [µg/mL]	Selectivity (CV-1 IC50 / CRL-1420 IC50) [7]	IC50 [3, 11] [µg/mL]	IC50 ([3]; read-out: CV-1 (IC50), Table V) [µg/mL]	IC50 [3, 12] [µg/mL]	IC50 [3, 13] [µg/mL]	also measured
C=CCn1c(=Cc2sc3c4ccccc4ccc3[n+]2CC)sc(=CC=C2C=CN(CC)c3ccccc32)c1=O [Compound 290]	0.025	100	2.5	–	–	–	–	–	–	–	–	–	–	–	–	T/C (survival) [2]: 356%
CCN1C(=CC=c2sc(=Cc3sc4c5ccccc5ccc4[n+]3CC)n(C)c2=O)Sc2ccc3ccccc3c21 [Compound 45]	0.02	1000	20	0.05	400	0.07	286	0.06	333	0.07	286	20	20	20	20	response vs control in vivo at 20 mg/kg (human melanoma LOX; i.p. on day 1, 2, 3, 6, 9, 13): 137%; inhibition in vivo at 20 mg/kg ([8]; i.p. on day 1, 4, 7, 11, 15, 18): 56.8%
CCN1C(=CC=c2sc(=Cc3sc4c5ccccc5ccc4[n+]3CC)n(CC)c2=O)Sc2ccc3ccccc3c21 [Compound 54]	–	500	–	–	500	–	286	0.05	400	–	400	20	20	20	20	CX-1 (IC50) [1, 9]: 0.04 µg/mL; EJ (IC50) ([4]; 24 h treatment): 0.04 µg/mL; LOX (IC50) ([5]; 24 h treatment): 0.07 µg/mL; CRL-1420 (IC50) ([7]; 24 h treatment): 0.05 µg/mL; inhibition in vivo at 5 mg/kg ([8]; 5 mg/kg, i.p. on day 1, 5, 9, 13): 42.6%
CCN1C(=CC=c2sc(=Cc3sc4c5ccccc5ccc4[n+]3C)n(C)c2=O)Sc2ccc3ccccc3c21 [Compound 46]	0.05	400	20	0.082	244	0.064	312	0.082	244	0.064	312	20	20	20	20	response vs control in vivo at 20 mg/kg (human melanoma LOX; i.p. on day 1, 3, 6, 9, 13, 16): 222%; inhibition in vivo at 20 mg/kg ([8]; i.p. on day 1, 5, 7, 9): 60.1%
CCN1/C(=C/C=C/c2sc3ccccc3[n+]2CC)Sc2ccccc21 [B, reference compound]	–	–	0.6	–	–	–	–	–	–	–	–	–	–	–	–	toxicity to normal nude mice (normal nude mice): highly toxic to normal nude mice
